PMC8396041, “A Michael Acceptor Analogue, SKSI-0412, Down-Regulates Inflammation and Proliferation Factors through Suppressing Signal Transducer and Activator of Transcription 3 Signaling in IL-17A-Induced Human Keratinocyte” (International Journal of Molecular Sciences, 2021)

Target: T1, STAT3 (Homo sapiens, UniProt P40763)
T1 construct: Recombinant human STAT3 protein (Abnova, cat no. H00006774-P01)
Assay: intrinsic fluorescence quenching titration (ex […] nm, em […] nm)
Format: binding

T1 sequence (P40763 2-770): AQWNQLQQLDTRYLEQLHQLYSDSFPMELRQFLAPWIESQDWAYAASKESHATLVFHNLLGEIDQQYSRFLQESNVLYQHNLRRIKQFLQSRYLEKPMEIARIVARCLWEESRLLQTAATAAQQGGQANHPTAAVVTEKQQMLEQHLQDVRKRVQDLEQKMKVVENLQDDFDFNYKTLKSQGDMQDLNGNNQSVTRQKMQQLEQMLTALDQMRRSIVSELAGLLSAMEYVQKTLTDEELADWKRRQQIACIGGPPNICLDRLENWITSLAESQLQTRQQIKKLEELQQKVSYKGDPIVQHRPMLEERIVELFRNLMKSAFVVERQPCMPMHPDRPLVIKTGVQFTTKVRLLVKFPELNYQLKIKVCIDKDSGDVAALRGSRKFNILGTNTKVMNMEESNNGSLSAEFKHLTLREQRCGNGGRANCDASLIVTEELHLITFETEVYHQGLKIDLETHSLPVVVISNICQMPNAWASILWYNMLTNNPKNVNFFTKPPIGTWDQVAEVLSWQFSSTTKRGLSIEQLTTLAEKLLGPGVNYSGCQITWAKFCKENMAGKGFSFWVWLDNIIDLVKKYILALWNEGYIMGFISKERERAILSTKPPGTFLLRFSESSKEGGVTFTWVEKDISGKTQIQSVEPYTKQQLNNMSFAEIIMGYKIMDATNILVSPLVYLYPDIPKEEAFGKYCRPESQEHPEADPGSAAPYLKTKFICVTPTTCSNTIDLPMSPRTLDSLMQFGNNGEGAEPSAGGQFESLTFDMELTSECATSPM

## C=C(C(=O)c1ccc2c(c1)C=CC(C)(C)O2)c1ccc(OC)c(OC)c1 [compound 4, 2-(3,4-Dimethoxyphenyl)-1-(2,2-Dimethyl-2H-Chromen-6-yl)Prop-2-en-1-One]
  Kd: 26.8 µM
